Literature values in US20190314382A1, “COMPOUNDS AND PHARMACEUTICAL COMPOSITIONS THEREOF FOR THE TREATMENT OF INFLAMMATORY DISEASES” (Galapagos NV, priority 2016, published 2019).

Tested on: MRL/lpr mice
Settings: cited from earlier work

N#C/C(=C\c1ccc(O)c(O)c1)C(=O)NCc1ccccc1 [tyrphostin AG490]
renal expression of monocyte chemotactic protein (MCP)-1, interferon (IFN)-γ and class II MHC: significantly inhibited | renal infiltration of T cells and macrophages: reduced
